The results in this text go back to patent US10307439B2, “Substituted nucleosides, nucleotides and analogs thereof” (priority 2014, dated 2019).

For experiment [1], the system named is human β-coronavirus strain OC43 or human α-coronavirus strain 229E. Description: Coronavirus assay (cytopathic effect, CellTiter-Glo, HeLa or MRC-5 cells). The format is cell-based. The settings on record: Betacoronavirus 1; for inhibition: at one or more of the concentrations 75 μM, 10 μM and 2 μM, strain OC43 or 229E not specified; for EC50: coronavirus strain OC43 or 229E not specified, 4 h pre-incubation, 5 days.

Experiment [2] relates to TC-83 strain Venezuelan equine encephalitis virus. The experiment in a line: microbe, parasite or virus in culture. In kind it is cell-based.
Another experiment concerns Chikungunya virus. The experiment in a line: Chikungunya assay. The format is cell-based. The following applies: 2 h pre-incubation.
The next experiment has as its target SARS polymerase (Severe acute respiratory syndrome coronavirus, UniProt P0C6X7). The experiment in a line: biochemical. Also noted: species or system SARS virus.
Another experiment deals with MERS. The experiment in a line: microbe, parasite or virus in culture. The format is cell-based. The settings on record: Middle East respiratory syndrome-related coronavirus, 96 h.

Some results are limits rather than exact numbers.

Broadly, the inhibition is the percentage by which the read-out fell short of the control. By EC50 is commonly meant the midpoint of the concentration-response curve. A high value points to a need for much substance. As usually defined, the IC50 is the concentration that gives 50% inhibition. Higher therefore signals weaker potency. Usually EC90 stands for the point of the concentration-response curve where the effect stands at 90%.

In experiment [1], `CCOc1nc(N)nc2c1ncn2[C@@H]1O[C@](F)(CO[P@](=O)(N[C@@H](C)C(=O)OC2CCCCC2)Oc2ccccc2)[C@@H](O)[C@@]1(C)F` (single isomer, unassigned) [Compound 212a] yielded an inhibition of no less than 50% and an EC50 of less than 10 µM.
In experiment [1], `CCOc1nc(N)nc2c1ncn2[C@@H]1O[C@](F)(CO[P@@](=O)(N[C@@H](C)C(=O)OC2CCCCC2)Oc2ccccc2)[C@@H](O)[C@@]1(C)F` (single isomer, unassigned) [Compound 212b] came in with an inhibition of no less than 50% and an EC50 of less than 10 µM.
Take `CC(C)OC(=O)OCOP(=O)(OCOC(=O)OC(C)C)OC[C@@]1(F)O[C@@H](n2ccc(=O)[nH]c2=O)[C@](C)(O)[C@@H]1O` [Compound 9]: the EC50 (in experiment [2]; with Chikungunya virus) was less than 10 µM throughout.
In experiment [1], `C[C@H](NP(=O)(OC[C@@]1(F)O[C@@H](n2cnc3c(=O)[nH]c(N)nc32)[C@](C)(O)[C@@H]1F)Oc1ccccc1)C(=O)OC1CCCCC1` (stereo partly drawn) [Compound 14] showed an inhibition of no less than 50%.
Regarding `CCOc1nc(N)nc2c1ncn2[C@@H]1O[C@](F)(COP(=O)(N[C@@H](C)C(=O)OC2CCCCC2)Oc2ccccc2)[C@@H](F)[C@@]1(C)O` (stereo partly drawn) [Compound 16], the EC50 in experiment [1] is less than 10 µM.
For `C[C@]1(F)[C@H](n2cnc3c(=O)[nH]c(N)nc32)O[C@](F)(COP(=O)(O)OP(=O)(O)OP(=O)(O)O)[C@H]1O` [Compound 19], the IC50 against SARS polymerase is less than 10 µM.
Compound `CCOc1nc(N)nc2c1ncn2[C@@H]1O[C@](F)(COP(=O)(N[C@@H](C)C(=O)OC(C)C)Oc2ccccc2)[C@@H](F)[C@@]1(C)O` (stereo partly drawn) [Compound 22] displayed an inhibition in experiment [1] of no less than 50%.
Consider `CCOc1nc(N)nc2c1ncn2[C@@H]1O[C@](F)(CO[P@](=O)(N[C@@H](C)C(=O)OC2CCCCC2)Oc2ccccc2)[C@@H](O)[C@@]1(C)F` [Compound 25], for which the EC90 in the experiment on MERS was in the range of 10 to 50 µM. Also, the EC50 (in experiment [2]; with Chikungunya virus) was less than 10 µM in each case.
In turn, `C#C[C@]1(O)[C@H](n2cnc3c(OCC)nc(N)nc32)O[C@](F)(CO[P@](=O)(N[C@@H](C)C(=O)OC2CCCCC2)Oc2ccccc2)[C@H]1O` [Compound 27] yielded an EC90 in the experiment with MERS of 10 to 50 µM.
On SARS polymerase, `C[C@@]1(O)[C@H](O)[C@@](CF)(COP(=O)(O)OP(=O)(O)OP(=O)(O)O)O[C@H]1n1cnc2c(=O)[nH]c(N)nc21` [Compound 34] came in with an IC50 of less than 10 µM.
`CCOc1nc(N)nc2c1ncn2[C@@H]1O[C@](CF)(COP(=O)(N[C@@H](C)C(=O)OC2CCCCC2)Oc2ccccc2)[C@@H](O)[C@@]1(C)O` (stereo partly drawn) [Compound 36] displayed an EC90 in the experiment on MERS of less than 10 µM.
Take `CCOc1nc(N)nc2c1ncn2[C@@H]1O[C@](F)(COP(=O)(OCOC(=O)OC(C)C)OCOC(=O)OC(C)C)[C@@H](O)[C@@]1(C)O` [Compound 55]: the EC50 (in experiment [2]; in the experiment with Chikungunya virus; in experiment [1]) was less than 10 µM each time. This compound came in with an inhibition in experiment [1] of no less than 50%.
In the experiment with MERS, `CCOc1nc(N)nc2c1ncn2[C@@H]1O[C@](F)(COP(=O)(OCOC(=O)OC(C)C)OCOC(=O)OC(C)C)[C@@H](F)[C@@]1(C)O` [Compound 57] gave an EC90 of less than 10 µM. For the same compound, in experiment [1], the inhibition is no less than 50% and the EC50 is less than 10 µM.
In experiment [1], `CCOc1nc(N)nc2c1ncn2[C@@H]1O[C@](F)(COP(=O)(OCOC(=O)OC(C)C)OCOC(=O)OC(C)C)[C@@H](O)[C@@]1(C)F` [Compound 83] displayed an inhibition of no less than 50% and an EC50 of less than 10 µM.
Compound `C[C@]1(O)[C@H](n2cnc3c(=O)[nH]c(N)nc32)O[C@](F)(COP(=O)(O)OP(=O)(O)OP(=O)(O)O)[C@H]1F` [Compound 101] displayed an IC50 at SARS polymerase of less than 10 µM.
In turn, `C#C[C@]1(O)[C@H](n2cnc3c(=O)[nH]c(N)nc32)O[C@](F)(COP(=O)(O)OP(=O)(O)OP(=O)(O)O)[C@H]1F` [Compound 103] had an IC50 at SARS polymerase of less than 10 µM.
On the same count and under the same terms, for `C#C[C@]1(F)[C@H](n2cnc3c(=O)[nH]c(N)nc32)O[C@](F)(COP(=O)(O)OP(=O)(O)OP(=O)(O)O)[C@H]1O` [Compound 123] the value was less than 10 µM; for `C[C@@]1(F)[C@H](O)[C@@](CF)(COP(=O)(O)OP(=O)(O)OP(=O)(O)O)O[C@H]1n1cnc2c(=O)[nH]c(N)nc21` [Compound 162], less than 10 µM.
The compound `CCOc1nc(N)nc2c1ncn2[C@@H]1O[C@](CN=[N+]=[N-])(COP(=O)(OCOC(=O)OC(C)C)OCOC(=O)OC(C)C)[C@@H](O)[C@H]1F` [Compound 179] registered an EC50 in experiment [1] of less than 10 µM.
At SARS polymerase, `C#C[C@@]1(O)[C@H](O)[C@@H](COP(=O)(O)OP(=O)(O)OP(=O)(O)O)O[C@H]1n1cnc2c(=O)[nH]c(N)nc21` [Compound 203] yielded an IC50 of less than 10 µM.
In turn, `CCOc1nc(N)nc2c1ncn2[C@@H]1O[C@]2(F)COP(=O)(OC(C)C)O[C@H]2[C@@]1(C)F` (stereo partly drawn) [Compound 225] gave an inhibition in experiment [1] of no less than 50%.
The same measure, in the same setting: for `CCOc1nc(N)nc2c1ncn2[C@@H]1O[C@](F)(COP(=O)(N[C@@H](C)C(=O)OCC(C)(C)C)Oc2cccc3ccccc23)[C@@H](O)[C@@]1(C)F` (stereo partly drawn) [Compound 234] the value was no less than 50%.
Consider `C[C@@]1(Cl)[C@H](O)[C@@H](COP(=O)(O)OP(=O)(O)OP(=O)(O)O)O[C@H]1n1cnc2c(=O)[nH]c(N)nc21` [Compound 246], for which the IC50 on SARS polymerase is less than 10 µM.
As for `CC(C)(C)C(=O)OCOP(=O)(OCOC(=O)C(C)(C)C)OC[C@H]1O[C@@H](n2ccc(=O)[nH]c2=O)[C@](C)(O)[C@@H]1O` [Compound 265], the EC90 in the experiment with MERS fell in the range of 10 to 50 µM. Besides, the concentration giving a half-maximal response (EC50) (in experiment [2]; in the experiment with Chikungunya virus) was less than 10 µM in each case.
Regarding `C[C@H](NP(=O)(OC[C@H]1O[C@@H](n2cnc3c(=O)[nH]c(N)nc32)[C@](C)(Cl)[C@@H]1O)Oc1ccccc1)C(=O)OC1CCCCC1` (stereo partly drawn) [Compound 266], the EC90 in the experiment on MERS was less than 10 µM.
With `CCOc1nc(N)nc2c1ncn2[C@@H]1O[C@H](COP(=O)(N[C@@H](C)C(=O)OC2CCCCC2)Oc2ccccc2)[C@@H](O)[C@@]1(C)Cl` (stereo partly drawn) [Compound 267], the EC90 in the experiment on MERS lay within 10 to 50 µM.
